How the values were obtained:
Assay type in all cases: in vivo
[1] = system: rice flatsedge (Ci); assay: Test Example 2: herbicidal effects by upland field soil treatment; settings: 100 g of the active ingredient per 10 ares;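 also: grade of growth control; 5 = at least 90%; 4 = 70 to 90%; 3 = 50 to 70%; 2 = 30 to 50%; 1 = 10 to 30%; 0 = under 10%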
From the text: (§1) (Test on Herbicidal Effects by Upland Field Soil Treatment)

[2] = system: Digitaria ciliaris (Di); assay: as above; settings: 100 g of the active ingredient per 10 ares;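 also: grade of growth control; 5 = at least 90%; 4 = 70 to 90%; 3 = 50 to 70%; 2 = 30 to 50%; 1 = 10 to 30%; 0 = under 10%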
From the text: as §1

[3] = system: pale smartweed (Po); assay: as above; settings: 100 g of the active ingredient per 10 ares
From the text: as §1

[4] = system: slender amaranth (Am); assay: as above; settings: 100 g of the active ingredient per 10 ares
From the text: as §1

[5] = system: common lambsquarters (Ch); assay: as above; settings: 100 g of the active ingredient per 10 ares
From the text: as §1

[6] = system: barnyardgrass (Ec); assay: as above; settings: 100 g of the active ingredient per 10 ares
From the text: as §1

[7] = system: monochoria (Mo); assay: Test Example 1: herbicidal effects by paddy field soil treatment; settings: 100 g of the active ingredient per 10 ares, 21st day after the application, index 0-5 of Table 47;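 also: grade of growth control; 5 = at least 90%; 4 = 70 to 90%; 3 = 50 to 70%; 2 = 30 to 50%; 1 = 10 to 30%; 0 = under 10%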
How it was run: (§2)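 Scoring of herbicidal effect came 21 days after application of 100 g active ingredient per 10 ares to flooded (3 cm) paddy-soil pots sown with barnyardgrass, monochoria and bulrush, kept in a greenhouse.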

[8] = system: bulrush (Sc); assay: as above; settings: 100 g of the active ingredient per 10 ares, 21st day after the application, index 0-5 of Table 47;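 also: grade of growth control; 5 = at least 90%; 4 = 70 to 90%; 3 = 50 to 70%; 2 = 30 to 50%; 1 = 10 to 30%; 0 = under 10%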
How it was run: as §2

[9] = system: barnyardgrass (Ec); assay: as above; settings: 100 g of the active ingredient per 10 ares, 21st day after the application, index 0-5 of Table 47
How it was run: as §2

[10] = system: rice flatsedge (Ci); assay: Test Example 3: herbicidal effects by upland field foliage treatment; set-up: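 grade of growth control; 5 = at least 90%; 4 = 70 to 90%; 3 = 50 to 70%; 2 = 30 to 50%; 1 = 10 to 30%; 0 = under 10%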
How it was run: (§3)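 Sowing into sand pots with a 120 cm^2 surface, followed by soil covering and 2 weeks of greenhouse growth, preceded the leaf treatment. Scoring of weed control took place on the 14th day afterwards according to set evaluation criteria.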

[11] = system: pale smartweed (Po); assay: as above; set-up: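 grade of growth control; 5 = at least 90%; 4 = 70 to 90%; 3 = 50 to 70%; 2 = 30 to 50%; 1 = 10 to 30%; 0 = under 10%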
How it was run: as §3

[12] = system: slender amaranth (Am); assay: as above; set-up: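 grade of growth control; 5 = at least 90%; 4 = 70 to 90%; 3 = 50 to 70%; 2 = 30 to 50%; 1 = 10 to 30%; 0 = under 10%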
How it was run: as §3

[13] = system: Diaitaria ciliaris (Di); assay: as above; set-up: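 grade of growth control; 5 = at least 90%; 4 = 70 to 90%; 3 = 50 to 70%; 2 = 30 to 50%; 1 = 10 to 30%; 0 = under 10%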
How it was run: as §3

[14] = system: common lambsquarters (Ch); assay: as above; set-up: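 grade of growth control; 5 = at least 90%; 4 = 70 to 90%; 3 = 50 to 70%; 2 = 30 to 50%; 1 = 10 to 30%; 0 = under 10%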
How it was run: as §3

[15] = system: barnyardgrass (Ec); assay: as above; set-up: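 grade of growth control; 5 = at least 90%; 4 = 70 to 90%; 3 = 50 to 70%; 2 = 30 to 50%; 1 = 10 to 30%; 0 = under 10%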
How it was run: as §3

[16] = 21st day after the application, index 0-5 of Table 47
[17] = 100 g of the active ingredient per 10 ares, evaluated on the 14th day after treatment
[18] = evaluated on the 21st day after application
[19] = 100 g active ingredient per 10 ares, evaluated 14th day after treatment

| SMILES | Herbicidal effects Mo [7] | Herbicidal effects Sc [8] | Herbicidal effects Ec [9] | Herbicidal effects Ci [1, 18] | Herbicidal effects Di [2, 18] | Herbicidal effects Po [3, 18] | Herbicidal effects Am [4, 18] | Herbicidal effects Ch [5, 18] | Herbicidal effects Ec [6, 18] | Herbicidal effects Ci [10, 19] | Herbicidal effects Po [11, 19] | Herbicidal effects Am [12, 19] | Herbicidal effects Di [13, 19] | Herbicidal effects Ch [14, 19] | Herbicidal effects Ec [15, 19] | also measured |
| --- | --- | --- | --- | --- | --- | --- | --- | --- | --- | --- | --- | --- | --- | --- | --- | --- |
| CC(C)COc1cc(-c2ccc(C(F)(F)F)n(C)c2=O)c(F)cc1Cl [1-168] | 5 | 5 | 5 |  |  |  |  |  |  |  |  |  |  |  |  | Herbicidal effects Ci [1, 16]: 5; Herbicidal effects Di [2, 16]: 5; Herbicidal effects Po [3, 16]: 5; Herbicidal effects Am [4, 16]: 5; Herbicidal effects Ch [5, 16]: 5; Herbicidal effects Ec [6, 16]: 5; Herbicidal effects Ci [10, 17]: 5; Herbicidal effects Po [11, 17]: 5; Herbicidal effects Am [12, 17]: 5; Herbicidal effects Di [13, 17]: 5; Herbicidal effects Ch [14, 17]: 5; Herbicidal effects Ec [15, 17]: 5 |
| CC(C)OCCOc1cc(-c2ccc(C(F)(F)F)n(C)c2=O)c(F)cc1Cl [1-169] | 5 | 5 | 5 | 5 | 5 | 5 | 5 | 5 | 5 |  |  |  |  |  |  | Herbicidal effects Ci [10, 17]: 5; Herbicidal effects Po [11, 17]: 5; Herbicidal effects Am [12, 17]: 5; Herbicidal effects Di [13, 17]: 5; Herbicidal effects Ch [14, 17]: 5; Herbicidal effects Ec [15, 17]: 5 |
| CC(C)=CCOc1cc(-c2ccc(C(F)(F)F)n(C)c2=O)c(F)cc1Cl [1-174] | 5 | 5 | 5 | 5 | 5 | 5 | 5 | 5 | 5 |  |  |  |  |  |  | Herbicidal effects Ci [10, 17]: 5; Herbicidal effects Po [11, 17]: 5; Herbicidal effects Am [12, 17]: 5; Herbicidal effects Di [13, 17]: 5; Herbicidal effects Ch [14, 17]: 5; Herbicidal effects Ec [15, 17]: 5 |
| CC#CCOc1cc(-c2ccc(C(F)(F)F)n(C)c2=O)c(F)cc1Cl [1-175] | 5 | 5 | 5 | 5 | 5 | 5 | 5 | 5 | 5 |  |  |  |  |  |  | Herbicidal effects Ci [10, 17]: 5; Herbicidal effects Po [11, 17]: 5; Herbicidal effects Am [12, 17]: 5; Herbicidal effects Di [13, 17]: 5; Herbicidal effects Ch [14, 17]: 5; Herbicidal effects Ec [15, 17]: 5 |
| C=CCOc1cc(Cl)cc(F)c1-c1ccc(C(F)(F)F)n(C)c1=O [1′-3] | 5 | 4 | 5 | 5 | 5 | 5 | 5 | 5 | 5 | 5 | 5 | 5 | 5 | 5 | 5 |  |
| C#CC(CC)Oc1cc(Cl)cc(F)c1-c1ccc(C(F)(F)F)n(C)c1=O (stereo not drawn) [1′-6] | 5 | 5 | 5 | 5 | 5 | 5 | 5 | 5 | 5 | 5 | 5 | 5 | 5 | 5 | 5 |  |
| C#CCN1C(=O)COc2ccc(-c3ccc(C(F)(F)F)n(C)c3=O)cc21 [2-29] | 5 | 5 | 5 | 5 | 5 | 5 | 5 | 5 | 5 | 5 | 5 | 5 | 5 | 5 | 5 |  |
| CC(=O)c1cc(-c2ccc(C(F)(F)F)n(C)c2=O)c(F)cc1Cl [Compound 1-190] | 5 | 5 | 5 | 5 | 5 | 5 | 5 | 5 | 5 | 5 | 5 | 5 | 5 | 5 | 5 |  |
| CC(C)C(O)c1cc(-c2ccc(C(F)(F)F)n(C)c2=O)c(F)cc1Cl (stereo not drawn) [Compound 1-195] | 5 | 5 | 5 | 5 | 5 | 5 | 5 | 5 | 5 | 5 | 5 | 5 | 5 | 5 | 5 |  |
| CCOCOc1cc(-c2ccc(C(F)(F)F)n(C)c2=O)c(Cl)cc1Cl [Compound 1-206] | 5 | 5 | 5 | 5 | 5 | 5 | 5 | 5 | 5 | 5 | 5 | 5 | 5 | 5 | 5 |  |
| C#CCNC(=O)COc1cc(-c2ccc(C(F)(F)F)n(C)c2=O)c(F)cc1Cl [Compound 1-210] | 5 | 5 | 5 | 5 | 4 | 5 | 5 | 5 | 5 | 5 | 5 | 5 | 5 | 5 | 4 |  |
| COCCOc1cc(-c2ccc(C(F)(F)F)n(C)c2=O)c(Cl)cc1Cl [Compound 1-211] | 5 | 5 | 5 | 5 | 5 | 5 | 5 | 5 | 5 | 5 | 5 | 5 | 5 | 5 | 4 |  |
| CNS(=O)(=O)c1cc(-c2ccc(C(F)(F)F)n(C)c2=O)c(Cl)cc1Cl [Compound 1-256] | 5 | 5 | 5 | 5 | 5 | 5 | 5 | 5 | 5 | 5 | 5 | 5 | 5 | 5 | 5 |  |
| C=C(C)CN1C(=O)COc2cc(F)c(-c3ccc(C(F)(F)F)n(C)c3=O)cc21 [Compound 2-11] | 5 | 5 | 5 | 5 | 5 | 5 | 5 | 5 | 5 | 5 | 5 | 5 | 5 | 5 | 5 |  |
| CC=CCN1C(=O)COc2cc(F)c(-c3ccc(C(F)(F)F)n(C)c3=O)cc21 [Compound 2-12] | 5 | 5 | 5 | 5 | 5 | 5 | 5 | 5 | 5 | 5 | 5 | 5 | 5 | 5 | 5 |  |
| C=C(Cl)CN1C(=O)COc2cc(F)c(-c3ccc(C(F)(F)F)n(C)c3=O)cc21 [Compound 2-13] | 5 | 5 | 5 | 5 | 5 | 5 | 5 | 5 | 5 | 5 | 5 | 5 | 5 | 5 | 5 |  |
| CN1C(=O)COc2cc(F)c(-c3ccc(C(F)(F)F)n(C)c3=O)cc21 [Compound 2-16] | 5 | 5 | 5 | 5 | 5 | 5 | 5 | 5 | 5 | 5 | 5 | 5 | 5 | 5 | 5 |  |
| Cc1cc2c(-c3ccc(C(F)(F)F)n(C)c3=O)c(Cl)cc(Cl)c2o1 [Compound 4-10] | 5 | 5 | 5 | 5 | 5 | 5 | 5 | 5 | 5 | 5 | 5 | 5 | 5 | 5 | 5 |  |
| Cn1c(C(F)(F)F)ccc(-c2c(Cl)cc(Cl)c3oc(CBr)cc23)c1=O [Compound 4-16] | 5 | 5 | 5 | 5 | 5 | 5 | 5 | 5 | 5 | 5 | 5 | 5 | 5 | 5 | 5 |  |
